The values below come from ChEMBL document CHEMBL1141201, “Phosphinate, sulfonate, and sulfonamidate dipeptides as potential inhibitors of Escherichia coli aminopeptidase N” (Bioorg Med Chem Lett, 2005).

The target of this experiment is T1, Aminopeptidase N (Escherichia coli K-12, UniProt P04825).
T1 sequence (P04825 whole entry): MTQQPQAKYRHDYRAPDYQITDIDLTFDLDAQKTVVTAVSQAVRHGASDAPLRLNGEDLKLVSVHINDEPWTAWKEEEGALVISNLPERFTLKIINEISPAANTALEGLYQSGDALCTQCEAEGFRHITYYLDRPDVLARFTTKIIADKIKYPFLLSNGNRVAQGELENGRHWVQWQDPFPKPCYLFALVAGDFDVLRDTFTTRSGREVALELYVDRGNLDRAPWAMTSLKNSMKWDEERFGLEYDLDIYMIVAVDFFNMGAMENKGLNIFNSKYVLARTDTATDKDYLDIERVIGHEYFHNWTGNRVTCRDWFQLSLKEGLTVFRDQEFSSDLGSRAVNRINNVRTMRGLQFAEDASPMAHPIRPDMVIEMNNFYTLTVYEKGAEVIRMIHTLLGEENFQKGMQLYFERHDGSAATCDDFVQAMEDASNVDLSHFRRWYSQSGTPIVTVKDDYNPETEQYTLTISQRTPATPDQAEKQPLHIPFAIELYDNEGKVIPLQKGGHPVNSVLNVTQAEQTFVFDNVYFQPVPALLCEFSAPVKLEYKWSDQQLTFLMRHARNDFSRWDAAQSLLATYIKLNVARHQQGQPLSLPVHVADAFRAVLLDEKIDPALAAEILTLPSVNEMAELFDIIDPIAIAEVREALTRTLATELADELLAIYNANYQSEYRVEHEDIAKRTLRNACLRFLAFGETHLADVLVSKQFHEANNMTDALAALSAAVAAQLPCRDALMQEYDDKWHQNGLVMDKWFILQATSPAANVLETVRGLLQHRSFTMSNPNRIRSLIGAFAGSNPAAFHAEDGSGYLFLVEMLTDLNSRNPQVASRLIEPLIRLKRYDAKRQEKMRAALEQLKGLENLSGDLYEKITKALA
The experiment is described as follows: Inhibitory activity against aminopeptidase N (PepN) from Escherichia coli.
In the case of `CC(NS(=O)(=O)C(C)N)C(=O)O` (stereo not given), the Ki was over 300 µM.
In the case of `CCCCCCCCC(CP(=O)(O)C(C)N)C(=O)O` (stereo not given), the affinity, expressed as Ki, was 1.1 µM.
The compound `CC(OS(=O)(=O)C(C)N)C(=O)O` (stereo not given) came in with a Ki of over 300 µM.
On to `C/C(=C\P(=O)(O)C(C)N)C(=O)O` (stereo not given), for which the inhibitory constant (Ki) amounted to 1 µM.
`CC(CP(=O)(O)C(C)N)C(=O)O` (stereo not given) registered a Ki of 10 µM.

Usually Ki stands for a measure of affinity in units of concentration, obtained from inhibition or displacement. A higher Ki goes with a looser hold on the target.
